According to patent US20230310474A1, “CORONAVIRUS TREATMENT COMPOSITION AND METHOD” (Cleveland State University, priority 2022, published 2023):

Key:
HCoV-OC43 [1] = experiment: microbe, parasite or virus in culture; type: cell-based
THP-1 cells [2] = experiment: MTS cell viability assay in THP-1 cells; type: cell-based, human; conditions: all tested concentrations
Experimental: FIGS. 3A-J illustrate that Neu5Ac2en-OAcOMe exerts anti-viral effects in human cell models. […] (upper) or 37° C. (lower). Intracellular viral RNA was analyzed by RT-qPCR. FIGS. 3B-D show HCoV-OC43 (MOI = 2) infected THP-1 cells were treated with a gradient concentration of Neu5Ac2en-OAcOMe for 72 hours. Intracellular viral RNA (FIG. 3B, upper), extracellular progeny virus yields (FIG. 3B, lower and FIG. 3C) and intracellular nucleocapsid (FIG. 3D) were analyzed by RT-qPCR, TCID50 assay and immunoblot, respectively. The inhibitory and cytotoxic curves (3C) were obtained using the data from the lower panel in FIG. 3B and cell viability measured by MTS assay. CellTiter 96® AQueous One Solution Cell Proliferation Assay (MTS) (Promega, G3582) was performed as instructed in the kit manual. […] Sialylation was detected with biotin-MAA and biotin-SNA lectins. […] Nucleocapsid in the cell lysates was measured by western blot. […] The levels of intracellular nucleocapsid were analyzed by immunofluorescence (48 hours post-infection). […] ND, not detected. […]
(§1) To determine whether Neu5Ac2en-OAcOMe affects post-entry steps of the viral life cycle, THP-1 cells were infected with HCoV-OC43 for two hours and then treated the cells with Neu5Ac2en-OAcOMe. Intracellular viral RNA and viral titers were quantified in the cell culture supernatants 72 hours post-infection.

HCoV-OC43 [3] = system: HCoV-OC43
SARS-CoV-2 [4] = type: in vivo, K18-hACE2 transgenic mice; conditions: K18-hACE2 mice, IP on days 0-4, 1 x 10^4 PFU
HCoV-OC43 [5] = experiment: HCoV-OC43 binding and entry assay in pretreated THP-1 cells (4° C. or 37° C.); type: cell-based; conditions: THP-1 cells pretreated two hours; 4° C. one hour or 37° C. two hours post-infection
Experimental: Whether Neu5Ac2en-OAcOMe acts on the virus binding and entry steps of the viral life cycle was evaluated. THP-1 cells were treated with Neu5Ac2en-OAcOMe for two hours and then infected the cells with HCoV-OC43 at 4° C. or 37° C. Cells incubated at 4° C. were collected one hour post-infection and cells incubated at 37° C. were collected two hours post-infection. Intracellular viral RNA was quantified by RT-qPCR.

[6] = Intracellular conversion of membrane-permeable inhibitor; conditions: upon entering into the cells
SARS-CoV-2 [7] = experiment: SARS-CoV-2 high-throughput screen (HTS) cytopathic effect assay in Vero 76 cells; type: cell-based; conditions: MOI 0.1, 48 hours
THP-1 cells [8] = experiment: Cytokine production in THP-1 cells (human cytokine bead array); type: cell-based
Experimental: Mouse blood samples were obtained at indicated time points, and cytokines in the serum were determined using a mouse cytokine bead array designed for inflammatory cytokines (552364, BD Biosciences, San Jose, CA). Human cytokines in cell culture derived supernatants were determined using a human cytokine bead array designed for inflammatory cytokines (551811, BD Biosciences).
as §1

Neu1 = biological target: T1, Neu1 (Homo sapiens, UniProt Q99519); experiment: Neuraminidase (sialidase) activity assay with 4-MU-NANA in HEK293T cells transfected with Neu1; type: cell-based
T1 construct: expressed in transfected cells; host or cells: HEK293T

HCoV-OC43 [9] = experiment: HCoV-OC43 replication in epithelial cell lines (HEK293T, HeLa, BSC-1); type: cell-based
Experimental: Cells were fixed with 4% paraformaldehyde in phosphate buffered saline (PBS) at room temperature for 15 min and then permeabilized with 1% Triton X-100 in PBS at room temperature for 15 min. Immunofluorescence staining was performed. Images were acquired with an EVOS FL Auto Imaging System (Thermo Fisher Scientific).
Next, it was tested whether the observed efficacy of Neu5Ac2en-OAcOMe was not restricted to THP-1 cells. The efficacy of Neu5Ac2en-OAcOMe was evaluated in three epithelial cell lines (HEK293T cells, HeLa cells and BSC-1 cells). […] Therefore, cytosolic sialidase inhibitors represent a potential treatment for coronavirus infections.

SARS-CoV-2 [10] = conditions: several clinical trials; cited from earlier work
human sialidases = conditions: cited from earlier work
[11] = HEK293T cells with Neu1 expression vector, 30 min at room temperature
[12] = HEK293T cells, HeLa cells and BSC-1 cells

CC1(C)Cc2c(sc(NC(=S)NC(=O)c3ccccc3)c2C(=O)O)CO1 [CID-1067700, reference compound]
HCoV-OC43 release (HCoV-OC43 [1]): moderately inhibited

COC(=O)C1=CC(OC(C)=O)[C@@H](NC(C)=O)C([C@H](OC(C)=O)[C@@H](COC(C)=O)OC(C)=O)O1 (stereo partly drawn) [Neu5Ac2en-OAcOMe]
toxicity in MTS assay (THP-1 cells [2]): non-toxic at all tested concentrations
body weight (HCoV-OC43 [3]; after HCoV-OC43 infection, 20 mg/kg IP): significantly lower in vehicle-treated mice than in Neu5Ac2en-OAcOMe-treated mice
brain and lung tissue damage (H&E staining) (HCoV-OC43 [3]; day 5 post-infection): improved
serum IL-6 level (HCoV-OC43 [3]; day 5 post-infection): substantial decrease
serum TNF-α level (HCoV-OC43 [3]; day 5 post-infection): substantial decrease
HCoV-OC43 viral replication in the lungs, blood and brain (HCoV-OC43 [3]; day 5 post-infection, 20 mg/kg IP): suppression of HCoV-OC43 viral replication
toxic signs and symptoms (HCoV-OC43 [3]; in vivo, all treatment period): No toxic signs and symptoms were observed
survival (HCoV-OC43 [3]; seven-day-old C57BL/6 pups, 20 mg/kg IP, 10 days observation): 50%
SARS-CoV-2-induced mortality (SARS-CoV-2 [4]): significant protection
body weight loss (SARS-CoV-2 [4]): significant protection
virus binding and entry steps (intracellular viral RNA) (HCoV-OC43 [5]): did not affect virus binding and entry steps
intracellular conversion [6]: readily converted to the corresponding Neu5Ac2en intracellularly
N protein levels (HCoV-OC43 [1]): significantly decreased
antiviral activity against HCoV-OC43 (viral transcripts and viral titer) (HCoV-OC43 [1]): showed the highest antiviral activities
sialylation of HCoV-OC43 N protein (HCoV-OC43 [1]): increased sialylation
viral replication at the level of viral transcripts and viral titers (HCoV-OC43 [1]): significantly decreased viral replication
IC50 (HCoV-OC43 [1]; Betacoronavirus 1, OC43, THP-1, read-out: IC50 of viral replication (viral titers in cell culture supernatants)): 13.7 µM
protection activity (cell viability post SARS-CoV-2 infection) (SARS-CoV-2 [7]): showed the highest protection activities
cytokine production (THP-1 cells [8]): did not induce cytokine production
cell surface sialidase activity (Neu1; [11]): did not affect
total sialidase activity (total cell lysate) (Neu1; [11]): significantly decreased
viral replication by immunofluorescence staining for HCoV-OC43-N protein (HCoV-OC43 [9]; BSC-1 cells, MOI 0.1, 48 hours post-infection): effectively suppressed viral replication
N protein levels in epithelial cell lines (HCoV-OC43 [9]; [12]): significantly decreased
viral replication in epithelial cell lines (HCoV-OC43 [9]; [12]): inhibited viral replication in all three cell lines

O=C(CO)N[C@H]1[C@H]([C@H](O)[C@H](O)CO)OC(C(=O)O)=C[C@@H]1O [Neu5Gc2en, reference compound]
antiviral activity against HCoV-OC43 (viral transcripts and viral titer) (HCoV-OC43 [1]): did not inhibit HCoV-OC43 replication
protection activity (cell viability post SARS-CoV-2 infection) (SARS-CoV-2 [7]): could not protect
cell surface sialidase activity (Neu1; [11]): targets sialidase on cell surface

CCOC(=O)C1=C[C@@H](OC(CC)CC)[C@H](NC(C)=O)[C@@H](N)C1 [oseltamivir]
antiviral activity against HCoV-OC43 (viral transcripts and viral titer) (HCoV-OC43 [1]): did not show inhibitory activity
protection activity (cell viability post SARS-CoV-2 infection) (SARS-CoV-2 [7]): did not show inhibitory activity
efficacy in treating SARS-CoV-2 infection (SARS-CoV-2 [10]): no positive outcomes were observed
sialidase activity in the cytoplasm (Neu1): only slightly decreased
effect on human sialidases (human sialidases): almost no effect

CC(=O)N[C@H]1[C@H]([C@H](O)[C@H](O)CO)OC(C(=O)O)=C[C@@H]1N=C(N)N [zanamivir]
antiviral activity against HCoV-OC43 (viral transcripts and viral titer) (HCoV-OC43 [1]): did not show inhibitory activity
protection activity (cell viability post SARS-CoV-2 infection) (SARS-CoV-2 [7]): did not show inhibitory activity
effect on human sialidases (human sialidases): almost no effect
